Test results published in PubChem BioAssay AID328 (DTP/NCI, 2004).
Inconclusive results and toxic doses are left out. Rule for the calls: active = survival T/C of 150% or more; inactive = T/C below 125% in these data.

Test system: BDF1 mice, P388 leukemia ip, median survival T/C
Test: NCI In Vivo Anticancer Drug Screen. Data for tumor model P388 Leukemia (intraperitoneal) in B6D2F1 (BDF1) mice
Details: endpoint: median survival time, higher = longer survival
Method in brief: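 Each value expresses how treatment altered survival: treated-mouse outcome over vehicle-mouse outcome, both groups bearing the transplanted tumour.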

[1] = dose: 100.0 mg/kg/injection, schedule: Q04DX003 (ip), vehicle: saline with Tween-80
[2] = dose: 200.0 mg/kg/injection, schedule: Q04DX003 (ip), vehicle: saline with Tween-80

Measured: T/C

CO[C@H]1/C=C/O[C@@]2(C)Oc3c(C)c(O)c4c(O)c(c(/C=N/N5C(C)CN(Cc6ccccc6)CC5C)c(O)c4c3C2=O)NC(=O)/C(C)=C\C=C\[C@H](C)[C@H](O)[C@@H](C)[C@@H](O)[C@@H](C)[C@H](OC(C)=O)[C@@H]1C (some centres undefined)
inactive: dose: 12.5 mg/kg/injection, schedule: Q01DX005 (ip), vehicle: Klucel (hydroxypropylcellulose) (HPC) 94 % of control | dose: 12.5 mg/kg/injection, schedule: Q01DX005 (ip), vehicle: other 97 % of control | dose: 12.5 mg/kg/injection, schedule: Q01DX005 (oral), vehicle: other 103 % of control | dose: 12.5 mg/kg/injection, schedule: Q02DX Z (oral), vehicle: Klucel (hydroxypropylcellulose) (HPC) 89 % of control | dose: 25.0 mg/kg/injection, schedule: Q01DX005 (ip), vehicle: Klucel (hydroxypropylcellulose) (HPC) 97 % of control | dose: 25.0 mg/kg/injection, schedule: Q01DX005 (ip), vehicle: other 106 % of control | dose: 25.0 mg/kg/injection, schedule: Q01DX005 (oral), vehicle: Klucel (hydroxypropylcellulose) (HPC) 104 % of control | dose: 25.0 mg/kg/injection, schedule: Q01DX005 (oral), vehicle: other 103 % of control | dose: 25.0 mg/kg/injection, schedule: Q02DX Z (ip), vehicle: Klucel (hydroxypropylcellulose) (HPC) 105 % of control | dose: 50.0 mg/kg/injection, schedule: Q01DX005 (ip), vehicle: Klucel (hydroxypropylcellulose) (HPC) 94 % of control | dose: 50.0 mg/kg/injection, schedule: Q01DX005 (ip), vehicle: other 103 % of control | dose: 50.0 mg/kg/injection, schedule: Q01DX005 (oral), vehicle: Klucel (hydroxypropylcellulose) (HPC) 104 % of control | dose: 50.0 mg/kg/injection, schedule: Q01DX005 (oral), vehicle: other 104 % of control | dose: 50.0 mg/kg/injection, schedule: Q01DX009 (ip), vehicle: Klucel (hydroxypropylcellulose) (HPC) 90 % of control | dose: 50.0 mg/kg/injection, schedule: Q02DX Z (ip), vehicle: Klucel (hydroxypropylcellulose) (HPC) 105 % of control | dose: 50.0 mg/kg/injection, schedule: Q02DX Z (oral), vehicle: Klucel (hydroxypropylcellulose) (HPC) 99 % of control | dose: 100.0 mg/kg/injection, schedule: Q01DX005 (ip), vehicle: Klucel (hydroxypropylcellulose) (HPC) 100 % of control | dose: 100.0 mg/kg/injection, schedule: Q01DX005 (ip), vehicle: other 106 % of control | dose: 100.0 mg/kg/injection, schedule: Q01DX005 (oral), vehicle: Klucel (hydroxypropylcellulose) (HPC) 105 % of control | dose: 100.0 mg/kg/injection, schedule: Q01DX005 (oral), vehicle: other 114 % of control | dose: 100.0 mg/kg/injection, schedule: Q01DX009 (ip), vehicle: Klucel (hydroxypropylcellulose) (HPC) 100 % of control | dose: 100.0 mg/kg/injection, schedule: Q02DX Z (ip), vehicle: Klucel (hydroxypropylcellulose) (HPC) 110 % of control | dose: 100.0 mg/kg/injection, schedule: Q02DX Z (oral), vehicle: Klucel (hydroxypropylcellulose) (HPC) 100 % of control | dose: 200.0 mg/kg/injection, schedule: Q01DX005 (ip), vehicle: Klucel (hydroxypropylcellulose) (HPC) 86 % of control | dose: 200.0 mg/kg/injection, schedule: Q01DX005 (ip), vehicle: other 112 % of control | dose: 200.0 mg/kg/injection, schedule: Q01DX005 (oral), vehicle: Klucel (hydroxypropylcellulose) (HPC) 105 % of control | dose: 200.0 mg/kg/injection, schedule: Q01DX009 (ip), vehicle: Klucel (hydroxypropylcellulose) (HPC) 100 % of control | dose: 200.0 mg/kg/injection, schedule: Q02DX Z (ip), vehicle: Klucel (hydroxypropylcellulose) (HPC) 110 % of control | dose: 200.0 mg/kg/injection, schedule: Q02DX Z (oral), vehicle: Klucel (hydroxypropylcellulose) (HPC) 89 % of control | dose: 400.0 mg/kg/injection, schedule: Q01DX005 (ip), vehicle: Klucel (hydroxypropylcellulose) (HPC) 97 % of control | dose: 400.0 mg/kg/injection, schedule: Q01DX005 (oral), vehicle: Klucel (hydroxypropylcellulose) (HPC) 106 % of control | dose: 400.0 mg/kg/injection, schedule: Q02DX Z (ip), vehicle: Klucel (hydroxypropylcellulose) (HPC) 116 % of control | dose: 400.0 mg/kg/injection, schedule: Q02DX Z (oral), vehicle: Klucel (hydroxypropylcellulose) (HPC) 91 % of control | dose: 800.0 mg/kg/injection, schedule: Q01DX005 (oral), vehicle: Klucel (hydroxypropylcellulose) (HPC) 104 % of control | dose: 800.0 mg/kg/injection, schedule: Q02DX Z (ip), vehicle: Klucel (hydroxypropylcellulose) (HPC) 110 % of control | dose: 1600.0 mg/kg/injection, schedule: Q01DX005 (oral), vehicle: Klucel (hydroxypropylcellulose) (HPC) 110 % of control | dose: 1600.0 mg/kg/injection, schedule: Q02DX Z (ip), vehicle: Klucel (hydroxypropylcellulose) (HPC) 109 % of control

S=c1cc(-c2ccco2)ss1
inactive: dose: 25.0 mg/kg/injection, schedule: Q01DX009 (ip), vehicle: saline with Tween-80 112 % of control | dose: 50.0 mg/kg/injection, schedule: Q01DX009 (ip), vehicle: saline with Tween-80 95 % of control | dose: 100.0 mg/kg/injection, schedule: Q01DX009 (ip), vehicle: saline with Tween-80 98 % of control | [1] 110 % of control | dose: 200.0 mg/kg/injection, schedule: Q01DX009 (ip), vehicle: saline with Tween-80 102 % of control | [2] 100 % of control | dose: 400.0 mg/kg/injection, schedule: Q01DX009 (ip), vehicle: saline with Tween-80 107 % of control | dose: 400.0 mg/kg/injection, schedule: Q04DX003 (ip), vehicle: saline with Tween-80 101 % of control

C1=CC(c2ccccc2)N2C(C(c3ccccc3)=N1)C2c1ccccc1 (centres undefined)
inactive: dose: 25.0 mg/kg/injection, schedule: Q04DX003 (ip), vehicle: saline with Tween-80 98 % of control | dose: 50.0 mg/kg/injection, schedule: Q04DX003 (ip), vehicle: saline with Tween-80 94 % of control | [1] 100 % of control | [2] 103 % of control

CC(C)(C1=CC=CS1(=O)=O)C1=CC=C(C(C)(C)C2=CC=CS2(=O)=O)S1(=O)=O
inactive: dose: 100.0 mg/kg/injection, schedule: Q01DX001 (ip), vehicle: saline with Tween-80 102 % of control | dose: 200.0 mg/kg/injection, schedule: Q01DX001 (ip), vehicle: saline with Tween-80 94 % of control | dose: 400.0 mg/kg/injection, schedule: Q01DX001 (ip), vehicle: saline with Tween-80 106 % of control

Cc1cc(C)c([I+]c2c(C)cc(C)cc2C)c(C)c1
inactive: dose: 0.28 mg/kg/injection, schedule: Q01DX009 (ip), vehicle: saline 118 % of control | dose: 0.45 mg/kg/injection, schedule: Q04DX003 (ip), vehicle: saline 109 % of control | dose: 0.56 mg/kg/injection, schedule: Q01DX009 (ip), vehicle: saline 118 % of control | dose: 0.65 mg/kg/injection, schedule: Q04DX003 (ip), vehicle: saline 109 % of control | dose: 1.1 mg/kg/injection, schedule: Q04DX003 (ip), vehicle: saline 120 % of control | dose: 1.13 mg/kg/injection, schedule: Q01DX009 (ip), vehicle: saline 109 % of control | dose: 1.65 mg/kg/injection, schedule: Q04DX003 (ip), vehicle: saline 120 % of control | dose: 3.0 mg/kg/injection, schedule: Q01DX009 (ip), vehicle: Klucel (hydroxypropylcellulose) (HPC) 103 % of control | dose: 3.0 mg/kg/injection, schedule: Q04DX003 (ip), vehicle: Klucel (hydroxypropylcellulose) (HPC) 112 % of control | dose: 6.0 mg/kg/injection, schedule: Q01DX009 (ip), vehicle: Klucel (hydroxypropylcellulose) (HPC) 111 % of control | dose: 6.0 mg/kg/injection, schedule: Q04DX003 (ip), vehicle: Klucel (hydroxypropylcellulose) (HPC) 100 % of control | dose: 8.0 mg/kg/injection, schedule: Q04DX003 (ip), vehicle: Klucel (hydroxypropylcellulose) (HPC) 95 % of control | dose: 8.0 mg/kg/injection, schedule: Q04DX003 (ip), vehicle: saline with Tween-80 120 % of control | dose: 12.5 mg/kg/injection, schedule: Q04DX003 (ip), vehicle: Klucel (hydroxypropylcellulose) (HPC) 115 % of control

Cc1ccc(S(=O)(=O)CC#CCOc2ccccc2)cc1
inactive: dose: 50.0 mg/kg/injection, schedule: Q04DX003 (ip), vehicle: saline 100 % of control | dose: 100.0 mg/kg/injection, schedule: Q04DX003 (ip), vehicle: saline 100 % of control | dose: 200.0 mg/kg/injection, schedule: Q04DX003 (ip), vehicle: saline 104 % of control
